The values below come from patent US8536195B2, “Bicyclic derivatives as modulators of ion channels” (Vertex Pharmaceuticals Incorporated, priority 2005, dated 2013).

pIC50: −log10 of the molar value. Where two headings read alike, the source gives them in different places.

The target in assay [1] is T1, NaV1.3 (Homo sapiens, UniProt Q9NY46). Nature of the assay: Activity against NaV 1.3 channel (VIPR optical membrane potential assay with electrical stimulation). Also on record: expressed in transfected cells; host or cells: HEK293. The assay is classed as cell-based. Here is the method:
Compounds of the invention are useful as antagonists of voltage-gated sodium ion channels. Antagonist properties of test compounds were assessed as follows. Cells expressing the NaV of interest were placed into microtiter plates. After an incubation period, the cells were stained with fluorescent dyes sensitive to the transmembrane potential. The test compounds were added to the microtiter plate. The cells were stimulated with either a chemical or electrical means to evoke a NaV dependent membrane potential change from unblocked channels, which was detected and measured with trans-membrane potential-sensitive dyes. Antagonists were detected as a decreased membrane potential response to the stimulus. The optical membrane potential assay utilized voltage-sensitive FRET sensors described by Gonzalez and Tsien (See Gonzalez, J. E. and R. Y. Tsien (1995) “Voltage sensing by fluorescence resonance energy transfer in single cells” Biophys J 69(4): 1272-80, and Gonzalez, J. E. and R. Y. Tsien (1997) “Improved indicators of cell membrane potential that use fluorescence resonance energy transfer” Chem Biol 4(4): 269-77) in combination with instrumentation for measuring fluorescence changes such as the Voltage/Ion Probe Reader (VIPR®) (See Gonzalez, J. E., K. Oades, et al. (1999) “Cell-based assays and instrumentation for screening ion-channel targets” Drug Discov Today 4(9): 431-439).
The following is an example of how NaV1.3 inhibition activity is measured using the optical membrane potential method #2. Other subtypes are performed in an analogous mode in a cell line expressing the NaV of interest.
HEK293 cells stably expressing NaV1.3 are plated into 96-well microtiter plates. After an appropriate incubation period, the cells are stained with the voltage sensitive dyes CC2-DMPE/DiSBAC2(3) as follows.
2×CC2-DMPE=20 μM CC2-DMPE: 10 mM CC2-DMPE is vortexed with an equivalent volume of 10% pluronic, followed by vortexing in required amount of HBSS containing 10 mM HEPES. Each cell plate will require 5 mL of 2×CC2-DMPE. 50 μL of 2×CC2-DMPE is to wells containing washed cells, resulting in a 10 μM final staining concentration. The cells are stained for 30 minutes in the dark at RT.
2×DISBAC2(3) with ABSC1=6 μM DISBAC2(3) and 1 mM ABSC1: The required amount of 10 mM DISBAC2(3) is added to a 50 ml conical tube and mixed with 1 μL 10% pluronic for each mL of solution to be made and vortexed together. Then HBSS/HEPES is added to make up 2× solution. Finally, the ABSC1 is added.
The 2×DiSBAC2(3) solution can be used to solvate compound plates. Note that compound plates are made at 2× drug concentration. Wash stained plate again, leaving residual volume of 50 μL. Add 50 uL/well of the 2×DiSBAC2(3) w/ABSC1. Stain for 30 minutes in the dark at RT.
The electrical stimulation instrument and methods of use are described in ION Channel Assay Methods PCT/US01/21652, herein incorporated by reference. The instrument comprises a microtiter plate handler, an optical system for exciting the coumarin dye while simultaneously recording the coumarin and oxonol emissions, a waveform generator, a current- or voltage-controlled amplifier, and a device for inserting electrodes in well. Under integrated computer control, this instrument passes user-programmed electrical stimulus protocols to cells within the wells of the microtiter plate.
Insert or use electrodes into each well to be assayed.
Use the current-controlled amplifier to deliver stimulation wave pulses for 3 s. Two seconds of pre-stimulus recording are performed to obtain the un-stimulated intensities. Five seconds of post-stimulation recording are performed to examine the relaxation to the resting state.
Data are analyzed and reported as normalized ratios of background-subtracted emission intensities measured in the 460 nm and 580 nm channels. Background intensities are then subtracted from each assay channel. […]
Target sequence in this assay (Q9NY46 whole entry): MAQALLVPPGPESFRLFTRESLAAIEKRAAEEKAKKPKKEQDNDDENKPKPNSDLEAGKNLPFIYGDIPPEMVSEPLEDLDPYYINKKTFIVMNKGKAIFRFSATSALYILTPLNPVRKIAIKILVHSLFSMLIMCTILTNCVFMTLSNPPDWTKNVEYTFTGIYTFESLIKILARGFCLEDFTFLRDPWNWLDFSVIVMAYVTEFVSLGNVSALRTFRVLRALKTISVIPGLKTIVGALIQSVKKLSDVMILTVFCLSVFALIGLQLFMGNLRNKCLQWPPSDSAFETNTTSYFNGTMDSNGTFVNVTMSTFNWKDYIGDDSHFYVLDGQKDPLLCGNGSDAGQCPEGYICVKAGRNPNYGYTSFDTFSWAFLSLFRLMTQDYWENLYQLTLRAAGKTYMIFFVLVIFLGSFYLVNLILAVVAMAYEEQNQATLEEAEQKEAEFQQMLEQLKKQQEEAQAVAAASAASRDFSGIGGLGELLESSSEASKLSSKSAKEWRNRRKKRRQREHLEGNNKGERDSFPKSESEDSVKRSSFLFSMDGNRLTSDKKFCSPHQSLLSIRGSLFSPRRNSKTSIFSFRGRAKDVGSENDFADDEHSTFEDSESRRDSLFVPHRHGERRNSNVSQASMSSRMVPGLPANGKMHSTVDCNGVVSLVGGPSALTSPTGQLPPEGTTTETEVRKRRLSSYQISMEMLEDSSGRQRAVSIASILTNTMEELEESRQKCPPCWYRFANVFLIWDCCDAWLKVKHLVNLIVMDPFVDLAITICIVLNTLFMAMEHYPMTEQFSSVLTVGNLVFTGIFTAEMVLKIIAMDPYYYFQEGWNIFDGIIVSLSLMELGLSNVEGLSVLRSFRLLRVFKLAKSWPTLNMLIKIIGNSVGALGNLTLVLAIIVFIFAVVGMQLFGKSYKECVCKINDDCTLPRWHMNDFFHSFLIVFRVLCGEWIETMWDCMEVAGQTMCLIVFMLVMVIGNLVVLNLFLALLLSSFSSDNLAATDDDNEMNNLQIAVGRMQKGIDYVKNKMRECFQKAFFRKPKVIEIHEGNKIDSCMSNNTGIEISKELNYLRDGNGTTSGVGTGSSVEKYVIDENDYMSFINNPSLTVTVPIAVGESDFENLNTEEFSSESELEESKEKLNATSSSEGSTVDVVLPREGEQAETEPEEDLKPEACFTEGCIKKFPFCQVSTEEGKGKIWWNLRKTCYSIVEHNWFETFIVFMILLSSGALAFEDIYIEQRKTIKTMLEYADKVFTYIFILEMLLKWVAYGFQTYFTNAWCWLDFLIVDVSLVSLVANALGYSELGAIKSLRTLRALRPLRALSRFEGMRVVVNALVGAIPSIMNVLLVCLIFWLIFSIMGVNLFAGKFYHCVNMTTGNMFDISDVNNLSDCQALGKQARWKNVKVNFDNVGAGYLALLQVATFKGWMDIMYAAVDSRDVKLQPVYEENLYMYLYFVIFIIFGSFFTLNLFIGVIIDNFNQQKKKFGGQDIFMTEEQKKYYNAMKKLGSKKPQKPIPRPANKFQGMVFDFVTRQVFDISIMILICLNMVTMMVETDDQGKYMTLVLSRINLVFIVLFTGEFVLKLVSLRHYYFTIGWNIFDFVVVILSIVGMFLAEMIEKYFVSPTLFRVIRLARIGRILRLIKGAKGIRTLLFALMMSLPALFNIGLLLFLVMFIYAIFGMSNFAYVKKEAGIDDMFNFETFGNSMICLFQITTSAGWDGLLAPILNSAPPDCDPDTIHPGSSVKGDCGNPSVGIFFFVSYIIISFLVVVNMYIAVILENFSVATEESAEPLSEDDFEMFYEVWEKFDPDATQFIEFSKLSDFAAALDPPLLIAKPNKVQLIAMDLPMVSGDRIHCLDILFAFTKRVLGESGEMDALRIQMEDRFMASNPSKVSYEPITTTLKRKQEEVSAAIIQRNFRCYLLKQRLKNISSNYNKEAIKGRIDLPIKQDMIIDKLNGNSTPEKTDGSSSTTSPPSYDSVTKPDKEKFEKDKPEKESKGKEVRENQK

A further assay has as its target NaV1.8 (Homo sapiens, UniProt Q9Y5Y9). As to conditions: read-out: TTX IC50; cited from earlier work.
Assay [2] has as its target T1, NaV1.3. To be noted: read-out: TTX IC50; cited from earlier work.
Target sequence in this assay (Q9NY46 whole entry, looked up): as the sequence (Q9NY46 whole entry) above
The conditions of assay [3]: neuropathic pain, modest efficacy; cited from earlier work.

Chain of NaV1.8 (Q9Y5Y9 whole entry, looked up): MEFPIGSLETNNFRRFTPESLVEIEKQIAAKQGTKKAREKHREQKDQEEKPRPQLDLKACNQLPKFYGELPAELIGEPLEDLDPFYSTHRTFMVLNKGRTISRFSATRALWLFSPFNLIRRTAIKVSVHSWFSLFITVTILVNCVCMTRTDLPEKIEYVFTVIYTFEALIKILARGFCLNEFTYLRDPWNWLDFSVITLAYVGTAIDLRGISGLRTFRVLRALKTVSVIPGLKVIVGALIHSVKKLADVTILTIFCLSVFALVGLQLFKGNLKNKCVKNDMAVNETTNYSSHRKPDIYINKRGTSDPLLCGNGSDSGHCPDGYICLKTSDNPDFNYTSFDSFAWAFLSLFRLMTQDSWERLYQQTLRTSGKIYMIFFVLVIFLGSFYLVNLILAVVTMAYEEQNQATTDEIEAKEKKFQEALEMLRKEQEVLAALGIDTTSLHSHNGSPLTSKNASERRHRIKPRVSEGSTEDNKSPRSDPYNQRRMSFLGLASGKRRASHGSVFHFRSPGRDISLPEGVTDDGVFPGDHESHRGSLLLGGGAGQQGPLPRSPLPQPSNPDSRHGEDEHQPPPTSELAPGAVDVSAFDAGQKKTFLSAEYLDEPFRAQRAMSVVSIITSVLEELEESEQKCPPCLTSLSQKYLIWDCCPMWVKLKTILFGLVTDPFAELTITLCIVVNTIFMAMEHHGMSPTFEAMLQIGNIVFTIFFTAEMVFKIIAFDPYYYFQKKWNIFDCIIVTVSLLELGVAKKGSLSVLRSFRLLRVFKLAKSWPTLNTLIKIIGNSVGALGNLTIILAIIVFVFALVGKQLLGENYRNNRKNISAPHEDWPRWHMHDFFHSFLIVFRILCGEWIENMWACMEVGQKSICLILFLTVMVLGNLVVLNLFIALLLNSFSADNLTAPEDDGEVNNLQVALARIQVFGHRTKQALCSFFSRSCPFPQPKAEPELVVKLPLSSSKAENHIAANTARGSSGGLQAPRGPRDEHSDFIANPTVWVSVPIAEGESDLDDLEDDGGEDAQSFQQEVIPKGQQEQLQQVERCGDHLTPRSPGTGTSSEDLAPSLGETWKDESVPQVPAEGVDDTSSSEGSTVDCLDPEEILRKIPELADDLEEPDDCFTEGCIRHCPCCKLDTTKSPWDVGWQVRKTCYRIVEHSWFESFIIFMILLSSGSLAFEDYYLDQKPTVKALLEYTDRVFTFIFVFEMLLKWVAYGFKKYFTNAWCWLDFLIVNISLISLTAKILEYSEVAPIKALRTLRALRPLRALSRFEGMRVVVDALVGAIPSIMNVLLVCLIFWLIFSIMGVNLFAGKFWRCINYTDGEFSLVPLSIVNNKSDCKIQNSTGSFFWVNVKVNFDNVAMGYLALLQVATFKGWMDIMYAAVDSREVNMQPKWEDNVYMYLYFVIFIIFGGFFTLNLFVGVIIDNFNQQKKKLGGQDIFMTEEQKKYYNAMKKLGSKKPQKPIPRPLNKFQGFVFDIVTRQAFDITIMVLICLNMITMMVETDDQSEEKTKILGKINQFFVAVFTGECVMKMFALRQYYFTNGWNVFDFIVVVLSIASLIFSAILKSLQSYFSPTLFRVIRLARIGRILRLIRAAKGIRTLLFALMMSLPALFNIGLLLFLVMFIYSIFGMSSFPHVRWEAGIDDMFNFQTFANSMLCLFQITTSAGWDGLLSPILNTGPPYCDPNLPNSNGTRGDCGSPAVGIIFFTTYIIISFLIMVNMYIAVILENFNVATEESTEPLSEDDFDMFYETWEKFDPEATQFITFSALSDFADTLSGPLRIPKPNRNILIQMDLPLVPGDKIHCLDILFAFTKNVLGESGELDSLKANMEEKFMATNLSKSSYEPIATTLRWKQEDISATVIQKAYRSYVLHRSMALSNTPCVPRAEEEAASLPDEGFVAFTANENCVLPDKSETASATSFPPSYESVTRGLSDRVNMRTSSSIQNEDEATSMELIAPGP

For `O=C1Nc2ccc(S(=O)(=O)Nc3nc4ccccc4s3)cc2CC1CCOc1ccc(Cl)cc1Cl` (stereo not shown) [Compound 5, 3-[2-(2,4-Dichloro-phenoxy)-ethyl]-2-oxo-1,2,3,4-tetrahydro-quinoline-6-sulfonic acid benzothiazol-2-ylamide], the negative logarithm of the IC50 (pIC50) at NaV1.3 [1] was 4.70 to 5.30.

With `NC1=N[C@H](O)[C@H]2[C@H]3O[C@]4(O)O[C@@H]([C@@H](O)[C@@]2(N1)[C@@H]4O)[C@]3(O)CO` [TTX, tetrodotoxin], the pIC50 at NaV1.8 was < 4.30; at NaV1.3 [2] it was 7.82.

As to `Cc1csc(NS(=O)(=O)c2ccc3c(c2)CC(CCOc2ccc(Cl)cc2Cl)C(=O)N3)n1` (stereo not shown) [Compound 16], the pIC50 on NaV1.3 [1] is 4.70 to 5.30.

`O=C1Nc2ccc(S(=O)(=O)Nc3cnsn3)cc2CC1CCOc1ccc(Cl)cc1Cl` (stereo not shown) [Compound 6]: the negative-log IC50 (pIC50) on NaV1.3 [1] is 4.70 to 5.30.

For `NCC1(CC(=O)O)CCCCC1` [Gabapentin], the “share of patients in which it works” value in assay [3] is recorded as 60%.

Turning to `O=C1Nc2ccc(S(=O)(=O)Nc3nnc(C4CC4)s3)cc2CC1CCOc1ccc(Cl)cc1Cl` (stereo not shown) [Compound 9], the pIC50 at NaV1.3 [1] is 4.70 to 5.30.

Turning to `O=C1Nc2ccc(S(=O)(=O)Nc3ccccn3)cc2CC1CCOc1ccc(Cl)cc1Cl` (stereo not shown) [Compound 8], at NaV1.3 [1], the pIC50 is 4.70 to 5.30.

As to `O=C1Nc2ccc(S(=O)(=O)Nc3nc[nH]n3)cc2CC1CCOc1ccc(Cl)cc1Cl` (stereo not shown) [Compound 14], the negative-log IC50 (pIC50) on NaV1.3 [1] was 4.70 to 5.30.

As for `Cc1nnc(NS(=O)(=O)c2ccc3c(c2)CC(CCOc2ccc(Cl)cc2Cl)C(=O)N3)s1` (stereo not shown) [Compound 11, 3-[2-(2,4-Dichloro-phenoxy)-ethyl]-2-oxo-1,2,3,4-tetrahydro-quinoline-6-sulfonic acid (5-methyl-[1,3,4]thiadiazol-2-yl)-amide], the pIC50 at NaV1.3 [1] was 4.70 to 5.30.

For the compound `Cc1cc(C)nc(NS(=O)(=O)c2ccc3c(c2)CC(CCOc2ccc(Cl)cc2Cl)C(=O)N3)n1` (stereo not shown) [Compound 4], the pIC50 on NaV1.3 [1] was 4.70 to 5.30.

For `O=C1Nc2ccc(S(=O)(=O)Nc3nncs3)cc2CC1CCOc1ccc(Cl)cc1Cl` (stereo not shown) [Compound 1], at NaV1.3 [1], the pIC50 was 4.70 to 5.30.

Take `O=C1Nc2ccc(S(=O)(=O)Nc3nnc(-c4ccccc4)s3)cc2CC1CCOc1ccc(Cl)cc1Cl` (stereo not shown) [Compound 2]: the pIC50 at NaV1.3 [1] was 4.70 to 5.30.

Regarding `O=C1Nc2ccc(S(=O)(=O)Nc3ncccn3)cc2CC1CCOc1ccc(Cl)cc1Cl` (stereo not shown) [Compound 15], the pIC50 at NaV1.3 [1] is 4.70 to 5.30.

For `O=C1Nc2ccc(S(=O)(=O)Nc3nccs3)cc2CC1CCOc1ccc(Cl)cc1Cl` (stereo not shown) [Compound 3], the negative-log IC50 (pIC50) at NaV1.3 [1] is 4.70 to 5.30.

On to `COc1nc(NS(=O)(=O)c2ccc3c(c2)CC(CCOc2ccc(Cl)cc2Cl)C(=O)N3)ns1` (stereo not shown) [Compound 13], for which the negative-log IC50 (pIC50) at NaV1.3 [1] is 4.70 to 5.30.

Take `Cc1cnc(NS(=O)(=O)c2ccc3c(c2)CC(CCOc2ccc(Cl)cc2Cl)C(=O)N3)s1` (stereo not shown) [Compound 7]: the negative logarithm of the IC50 (pIC50) on NaV1.3 [1] is 4.70 to 5.30.

For `O=C1Nc2ccc(S(=O)(=O)Nc3nc(-c4ccccc4)ns3)cc2CC1CCOc1ccc(Cl)cc1Cl` (stereo not shown) [Compound 12], the negative logarithm of the IC50 (pIC50) at NaV1.3 [1] was 4.70 to 5.30.

On to `Cc1ccnc(NS(=O)(=O)c2ccc3c(c2)CC(CCOc2ccc(Cl)cc2Cl)C(=O)N3)n1` (stereo not shown) [Compound 10, 3-[2-(2,4-Dichloro-phenoxy)-ethyl]-2-oxo-1,2,3,4-tetrahydro-quinoline-6-sulfonic acid (4-methyl-pyrimidin-2-yl)-amide], for which, on NaV1.3 [1], the negative logarithm of the IC50 (pIC50) is 4.70 to 5.30.
